Assay results reported in US20080219962A1, “Method to Enhance the Bone Formation Activity of Bmp by Runx2 Acetylation” (BIORUNX CO., LTD., priority 2005, published 2008).
Numbered stars: 1 amine (or outer) side, 2 acyl side, 3 side chain; on linkers, the order of the positions; unused ones are H or OH. Bridge positions count the residues as written; N and C are the ends. Square brackets hold non-standard residues; d marks the D form. Peptide text beside a SMILES is read from it. I, II: the chains in the order shown. ξ: configuration not given here. hNle(7-SH) = O=C([C@H](CCCCCS[*:3])N[*:1])[*:2]; Ile(3ξ) = CCC(C)[C@H](N)C(=O)O

Key:
[1] = test system: Runx2; test: Runx2 acetylation: immunoprecipitation with anti-acetyl-lysine antibody, Western blot with anti-myc antibody; assay type: cell-based; settings: C2C12 cells transfected with myc-tagged Runx2, treated with HDAC inhibitor; FIG. 13
Method: Following transfection, the C2C12 and 293 cells were lysed in ice-cold cell lysis buffer (25 mM HEPES (pH 7.5), 150 mM NaCl, 1% NP-40, 0.25% Na deoxycholate, 10% glycerol, 25 mM NaF, 1 mM EDTA, 1 mM Na3VO4, 250 μM phenylmethylsulfonyl fluoride, 10 μg/ml leupeptin, 10 μg/ml aprotinin) and cleared by centrifugation. The resulting supernatants were immunoprecipitated with the appropriate primary and secondary antibodies, and protein A- or protein G-Sepharose beads (Amersham) for 4 hours. All incubations were conducted at 4° C. The Sepharose beads were washed extensively and bound proteins were separated using SDS-PAGE, and then transferred to PVDF membranes. The membranes were incubated with the appropriate antibodies, washed, and then incubated with horseradish peroxidase-coupled secondary antibodies. After washing, the reactive proteins were visualized with an enhanced chemiluminescence (ECL) reagent (Amersham Biosciences).
For HDAC inhibitor treatments, both C2C12 and 293 cells were cultured in fresh medium for 1 day following transfection, and then treated with the inhibitors (Tricostatin A (TSA), CHAP and SCOP) for 16 h, at the specified concentrations according to the methods of Komatsu et al (Cancer Res. 61:4459-4466, 2001) and Nishino et al (Nishino N. et al., Org. Lett. 5: 5079-5082, 2003).
The level of Runx2 acetylation might be controlled by a dynamic equilibrium between acetylation and deacetylation. […] In the present invention, inhibitors of histone diacetylase (HDAC) deacetylating most proteins were treated to Runx2. Particularly, C2C12 cells, transfected with myc-tagged Runx2, were treated with HDAC inhibitors such as SCOP304, SCOP152, CHAP27, SAHA, MS-275, FK228, TrafoxinB and Oxamflatin according to the method of Komatsu et al (Cancer Res. 61:4459-4466, 2001). Immunoprecipitation was performed using anti-acetyl-lysine antibody, followed by Western blot analysis using anti-myc antibody.

[2] = test system: C2C12 pluripotent mesenchymal precursor cells; test: Alkaline phosphatase (ALP) activity staining, early marker of osteoblast differentiation; assay type: cell-based; settings: increasing inhibitor concentration in presence of low concentration of BMP-2 (30 ng/ml), FIG. 18
Method: Particularly, C2C12 pluripotent mesenchymal precursor cells were treated with each HDAC inhibitor and then fixed with 3.7% formaldehyde for 10 minutes, to which western blue substrate (Promega) was added to induce color development for 10 minutes. And alkaline phosphatase (ALP) activity, an early marker of osteoblast differentiation was measured by the active staining method (Katagiri et al., J. Cell Biol. Vol. 127, 1755-66, 1994). As a result, the treatment of HDAC inhibitors such as TSA, SAHA, MS-275, FK228, Oxamflatin, CHAP27, SCOP152, SCOP304 and SCOP402 caused increase of ALP activity (FIG. 18).

[3] = test system: Runx2 transcriptional activity; test: pGL3-TβRE-luc luciferase reporter assay in 293 cells over-expressing Runx2; assay type: cell-based; settings: 293 cells over-expressing Runx2 and pGL3-TβRE-luc reporter; FIG. 16
Method: (§1) For luciferase assay, cells were plated on a 24-well plate one day before transfection, followed by co-transfection with luciferase reporter plasmid and numbers of Runx2 constructs. 36 hours after transfection, cells were recovered and luciferase and β-galactosidase activities were measured in cell lysate by using Luciferase Reporter Assay Kit (Promega) using luminometer according to the manufacturer's recommendations. The pCMVβ-Gal (beta-Galactosidase, Clontech Laboratory) plasmid was included as an internal control to determine the efficiency of transfection.
To examine whether HDAC inhibitors, increasing the level of Runx2 acetylation, could promote the Runx2 transcriptional activity, 293 cells over-expressing Runx2 and pGL3-TβRE-luc reporter were treated with each HDAC inhibitor. The transcriptional activity of Runx2 was evaluated by luciferase report assay, which was performed according to the manufacturer (Promega)'s instructions. As a result, HDAC inhibitors, Tubacin, SAHA, MS-275, Trafoxin B, Oxamflatin, CHAP27, CHAP31, SCOP152, SCOP304 and SCOP402, increased transcriptional activity of Runx2 (FIG. 16). From the result, it was confirmed that HDAC inhibitors not only increase the level of Runx2 acetylation but also increase the Runx2 transcriptional activity.

[4] = test system: periosteal bone formation; test: Periosteal bone formation after hypodermic injection into mice calvarias, H&E histostaining; assay type: in vivo; settings: 10 μl of 60 μM injected hypodermically into calvarias, two weeks, FIG. 22
Method: To confirm the effect of HDAC inhibitors on bone formation, the present inventors investigated the effect of CHAP27, SCOP402 and SCOP304 on periosteal bone formation in rodent. Particularly, 10 μl of HDAC inhibitors (60 μM) were hypodermically injected into mice calvarias (Zhao et al., J. Biol. Chem., 279, 12854-12859, 2004). Two weeks later, the mice were sacrificed, followed by hematoxyline & eosine histostaining (Cell Biology. Second edition, Edited by Julio E. Celis. Published by Academic Press, 1994).

[5] = test system: OC promoter; test: Osteocalcin (OC) promoter luciferase reporter assay in H1-127-21-2 cells; assay type: cell-based, mouse; settings: H1-127-21-2 cells over-expressing pCS4-3Myc-Runx and pGL2-1050 OC-luc; FIG. 19
Source text: Full-length Runx2 (SEQ. ID. No 2) labeled with Myc or HA was inserted into a vector to construct CMV promoter-derived mammalian expression vectors pCS4-3Myc and pCS4-3HA (Jin et al., J Biol Chem. Vol. 279, 29409-17, 2004, Ogawa et al., Proc Natl Acad Sci USA. 1993 Vol. 90, 6859-63.). Mutations affecting the Runx2 acetylation site were introduced by PCR (Michaels A. Innis et al., PCR protocols: a guide to method and applications, Qcademic Press, Inc., 1990) and cloned into the pCS4-3Myc vector. The BMP receptor 1 (BMPR1) and HA-p300 expression vectors were obtained from M. Ewen (Dana-Farber Cancer Institute, Harvard Medical School, Boston) (Genes Dev. Vol. 8, 869-84, 1994). The expression plasmids for the myc-HDAC series were cloned into pCS4-3Myc. The luciferase reporter plasmid, pGL3-TbRE, contains two copies of TbRE (originally identified in the immunoglobulin Cα promoter) (Lee, K. S., et al., Mol. Cell. Biol. 20:8783-8792, 2000; pGL3 is product of Promega). […]
as §1, with “The pCMVβ-Gal (beta-Galactosidase, Clontech Laboratory) plasmid was included as an internal control to determine the efficiency of transfection.” left out

| Compound | Runx2 acetylation [1] | ALP activity [2] | transcriptional activity of Runx2 (luciferase reporter) [3] | bone formation [4] | OC promoter activation over the activation observed for Runx2 alone [5] |
| --- | --- | --- | --- | --- | --- |
| C/C=C1\NC(=O)[C@H]2CSSCC/C=C/[C@H](CC(=O)N[C@H](C(C)C)C(=O)N2)OC(=O)[C@H](C(C)C)NC1=O [FK228] | increased | increase |  |  |  |
| Oxamflatin | increased | increase | increased |  |  |
| cyclo(-L-Asu(NHOH)-D-Tyr(Me)-L-Ile-D-Pro-) [CHAP31] |  |  | increased |  |  |
| CCC(C)[C@@H]1NC(=O)[C@H]2CCCN2C(=O)[C@H](CCCCCSSCCCCC[C@@H]2NC(=O)[C@H]3CCCN3C(=O)[C@H](C(C)CC)NC(=O)[C@@H](Cc3ccc(OC)cc3)NC2=O)NC(=O)[C@@H](Cc2ccc(OC)cc2)NC1=O (stereo partly drawn) [SCOP304, cyclo(L-Am7 (−)-D-Tyr(Me)-L-Ile-D-Pro)dimer] (I: cyclo([Ile(3ξ)][dP][hNle(7-SH)][dY](Me)) / II: cyclo([Ile(3ξ)][dY](Me)[hNle(7-SH)][dP]); disulfide I:3-II:3) | increased | increase | increased | remarkably enhanced | 2-4 fold |
| CC(/C=C/C(=O)NO)=C\[C@@H](C)C(=O)c1ccc(N(C)C)cc1 [TSA, 2,4-heptadieneamide, 7-[4-(dimethylamino)phenyl]-N-hydroxy-4,6-dimethyl-7-oxo-, (2E,4E,6R)-] |  | increase |  |  |  |
| Nc1ccccc1NC(=O)c1ccc(CNC(=O)OCc2cccnc2)cc1 [MS-275, carbamate, [[4-[[(2-aminophenyl)amino]carbonyl]phenyl]methyl]-, 3-pyridinemethyl ester] | increased | increase | increased |  |  |
| O=C(CCCCCCC(=O)Nc1ccccc1)NO [SAHA, octanediamide, N-hydroxy-N′-phenyl-] | increased | increase | increased |  |  |
| cyclo(-L-Am7-D-Tyr(Me)-L-Ile-D-Pro-) [SCOP152] | increased | increase | increased |  |  |
| O=C(CCCCCCC(=O)Nc1ccc([C@H]2O[C@@H](CSc3nc(-c4ccccc4)c(-c4ccccc4)o3)C[C@@H](c3ccc(CO)cc3)O2)cc1)NO [Tubacin] |  |  | increased |  |  |
